Test results: patent US8241903B2, “Catecholamine receptor modulation” (Yeda Research and Development Co., Ltd., priority 2006, dated 2012)

Assays:
[1] = test system: murine bone marrow mononuclear cells; assay: Spontaneous migration of bone marrow mononuclear cells from treated mice; format: in vivo; conditions: cells from mice treated with G-CSF plus agonist compared to G-CSF alone
human CD34+ cells [2] = assay: Engraftment of ex-vivo treated human CD34+ cells in bone marrow of irradiated NOD/SCID mice; conditions: for engraftment in the murine BM compared to control cells: MPB CD34+ cells incubated 2-4 days with 1 μM SKF or 100 ng/ml 7-OH-DPAT before injection, human CD45 in BM 5 weeks post injection; for engraftment of human CD34+ cells in NOD/SCID mice: cord blood CD34+ cells incubated 2 days with GM-CSF 5 ng/ml with or without the neurotransmitter prior to injection
Experimental: (ii) Mice. […] Eight-ten week old mice were sublethally irradiated (375 cGy, from a 60 Co source) and transplanted with human cells as indicated (2×10^5 cells/mouse) 24 hours post irradiation.
(iii) Cell transplantation. Cells were injected into the tail vein of NOD/SCID in 0.5 ml of RPMI supplemented with 10% FCS.
(iv) Assessment of cell engraftment. Recipient mice were irradiated with a sublethal (350 cGy) dose from a Cesium source 24 hours prior to injection of cells. MPB or CB CD34^+ cells (2-3×10^5/mouse) were treated with SKF or 7-OH-DPAT for 2-4 days and injected i.v. into NOD/SCID mice. Mice were sacrificed 5-6 weeks post transplantation of human cells for assessing human cell engraftment assessment. BM (femur, tibia and pelvis bones flushed with a syringe), spleen, and peripheral blood cells were harvested and resuspended into single cell suspensions. WBCs were counted and in some experiments MNCs were isolated from samples by standard separation on Ficol-Hypaque (Pharmacia Biotech). Human cell engraftment was assayed by flow cytometry (FACSCalibur, BD). Cells were triple-stained with CD45-FITC, CD38-PE and CD34-APC (Becton Dickinson) antibodies. Human plasma and mouse IgG were used to block Fc receptors. Human leukocytes were gated according to their expression of the pan-leukocyte marker CD45, and amongst this population the percentage of CD34^+/CD38^−/low primitive cells was determined.
To assess the effect of dopamine receptor on engraftment of stem cells, mobilized peripheral blood (MPB) enriched human CD34^+ cells treated ex-vivo with the dopamine agonists SKF or 7-OH-DPAT were transplanted in NOD/SCID mice and engraftment of human cell in the murine BM was determined. Briefly, 1-3×10^5 MPB CD34^+ cells were incubated for 2-4 days at 37° C. in RPMI supplemented with 10% FCS, penicillin streptomycin and L-Glutamine and treated with the dopamine receptor agonists (1 μM) SKF or (100 ng/ml) 7-OH-DPAT or were left untreated. After the incubation, the cells were injected in irradiated NOD/SCID mice. The mice were sacrificed 5 weeks post injection, BM was extracted and the BM cells were labeled for the human CD45 marker.
The experimental conditions were similar to those conducted with the dopamine agonists. […] For engraftment assay, cells were incubated for 2 days in RPMI supplemented with GM-CSF 5 ng/ml.

cord blood CD34+ cells [3] = assay: Progenitor colony forming assay (CFU) in semi solid cultures; format: cell-based, human; conditions: for colony (CFU-C) formation in the presence of GM-CSF: IL-3 plus GM-CSF 5 ng/ml, scored day 14; for colony (CFU-C) formation in the presence of GM-CSF / colony formation, culture not supplemented with myeloid cytokines: SKF 1 μM or 7-OH-DPAT 100 nM; for colony formation, culture not supplemented with myeloid cytokines: no GM-CSF or G-CSF; for clonogenic capacity of human cord blood CD34+ cells: epinephrine 10 nM, norepinephrine 1 and 10 nM added to the methyl cellulose
Experimental: (vii) Progenitor colony forming assay (CFU). In order to detect the levels of human progenitors, semisolid cultures were carried out as previously described (Peled et al. 1999). In brief, CD34^+ cells (1×10^3 cells/ml) were plated in 0.9% methylcellulose (Sigma), 30% FCS, 5×10^−5M 2ME, 50 ng/ml SCF, 5 ng/ml IL-3, 5 ng/ml GM-CSF (R&D), and 2 u/ml Erythropoietin (Orto Bio Tech, Don Mills, Canada) together with the dopamine agonists/antagonist. In some experiments the cells were pre-incubated for 4 days with the agonists/antagonist prior to plating in the semisolid culture. The cultures were incubated at 37° C. in a humidified atmosphere containing 5% CO2 and scored 14 days later for myeloid or erythroid colonies by morphologic criteria. In experiments where the level of in vivo engraftment by primitive human cells was determined, the semisolid media contained 15% human plasma and 15% FCS.
GM-CSF and G-CSF are known for their role in myeloid differentiation and in stem cell regulation. It is common practice to add these cytokines to progenitor colony forming assay (CFU) in order to facilitate detection of human progenitors. […] We therefore tested whether up regulation of dopamine receptor levels affects progenitor development in vitro. For this purpose cord blood CD34^+ cells were seeded in semi solid cultures (1×10^3 cells/ml in 1 ml) supplemented with the cytokines Epo (2 u/ml; Orto Bio Tech, Don Mills, Canada.), SCF (50 ng/ml; R&D) and IL-3 (5 ng/ml R&D) and with GM-CSF (5 ng/ml; R&D) or G-CSF (100 ng/ml; Roche) in order to up regulate dopamine receptor levels. To evaluate the effect of increased dopamine receptor activity, the semi solid cultures were supplemented with dopamine agonist SKF (1 μM) or 7-OH-DPAT (100 nM) or with medium as a control.
Next, the effect of the adrenergic neurotransmitters epinephrine (10 nM) and norepinephrine (1 and 10 nM) on proliferation of human CD34+ cells was assessed. The experimental conditions were similar to those conducted with the dopamine agonists. For colony assay, epinephrine and norepinephrine were added to the methyl cellulose. […] For engraftment assay, cells were incubated for 2 days in RPMI supplemented with GM-CSF 5 ng/ml.

cord blood CD34+ cells [4] = assay: Polarization of CB CD34+ cells upon adhesion to hyaluronic acid; format: cell-based, human; conditions: CB CD34+ cells on HA-coated cover slips, 2 hours at 37° C.
Experimental: Enriched CB CD34^+ cells (1×10^5 to 2×10^5 cells per well) were plated on HA-coated cover slips for 2 hours at 37° C., either untreated or treated with SKF or 7-OH-DPAT. Samples were processed for microscopic observation as described (Goichberg et al., 2001). In brief, the adherent cells were fixed with 3% paraformaldehyde (Merck, Darmstadt, Germany) and, if indicated, permeabilized in 0.5% Triton X-100 (Sigma-Aldrich). Samples were indirectly immunolabeled at room temperature in a humidified chamber with using purified polyclonal rabbit anti human Dopamine D5 antibodies (Calbiochem, Nottingham, UK) (MCAP89; Serotec). The secondary antibodies used were Goat anti rabbit Alexa 488 conjugated (Molecular Probes, Eugene Oreg.). Phalloidin—TRITC used to detect polymerized actin, was purchased from Sigma-Aldrich. Following labeling, cells were mounted in Elvanol (Mowiol 4-88, Hoechst, Frankfurt, Germany). Immunofluorescence images were acquired using scientific-grade CCD camera and processed by the Delta Vision system using Resolve 3D software (Applied Precision, Issaquah, Wash.).
We assessed changes in morphology of cord blood CD34^+ cells upon adhesion to hyaluronic in the presence or the absence of the dopamine agonists SFK or 7-OH-DPAT.

BM cells = assay: Bone marrow cellularity (WBC) after 5 daily i.p. injections in mice; format: in vivo; conditions: WBC on day 5, 4 hrs after last injection
Experimental: For this purpose, mice were injected with 5 daily i.p injections of the dopamine agonist 7-OH-DPAT (1.5 mg/kg) or antagonist flupenthixol 5 (3 mg/kg) or remained untreated and the bone marrow cell mass was determined. On day 5, 4 hrs after last injection, mice were sacrificed, BM cells were flushed from BM (with a syringe), and White Blood Count (WBC) was determined.

human CD34+ cells [5] = test system: human CD34+ cells
Experimental: (viii) Chemotaxis assays. Chemotaxis experiments were assayed using transwells (6.5 mm diameter, 5 μm pore; Corning Inc., Corning, N.Y.) as previously described (1). […] Migrating cells were counted using FACSCalibur (Becton Dickinson).
We tested the effect of dopamine (1 nM-1 uM) on in vitro migration potential of immature human CD34^+ cells (50,000-100,000 cells in 100 ul). […] Since dopamine is highly oxidative, its agonists were used, particularly in treatments requiring longer incubation periods (FIG. 6D).

[6] = test system: dopamine receptors 3 and 5 in CD34+/CD38-/low cells; assay: In vitro 3-day incubation with GM-CSF, dopamine receptor staining; format: cell-based, human; conditions: 3-day incubation with GM-CSF 5 ng/ml; MPB, normal BM or cord blood cells
Experimental: (§1) (vi) Flow cytometry analysis. Phenotypes of human and murine cells were examined by immunostaining, followed by flow cytometry analysis on FACSCalibur (Becton Dickinson, San Jose, Calif.) with CellQuest software. Single cell suspension were prepared in PBS containing 0.01% sodium azide and 1% FCS. Human plasma and mouse IgG were used to block human and murine Fc-receptors. Isotype-matched control antibodies were used to exclude false positive cells. Staining was performed in 4° C. for 30 minutes. Engraftment of human cells was examined by staining with mouse anti-human CD45-Fitc, CD38-PE and CD34-APC (Becton Dickinson). Human leukocytes were gated according to their expression of the pan-leukocyte marker CD45, and amongst this population the percentage of CD34+/CD38−/low primitive cells was determined. In several experiments dopamine receptor expression on CD34+/CD38−/low was tested, cells were triple stained with mouse anti-human CD38-PE, CD34-APC and rabbit anti human dopamine receptor 3 or 5 (Calbiochem, Nottingham, UK) followed by secondary antibodies goat anti rabbit alexa 488 (Molecular Probes, Eugene, Oreg.). After staining, cells were washed in FACS buffer and analyzed by fluorescence-activated cell sorting (FACSCalibur and CellQuest software, Becton Dickinson). […]

[7] = test system: dopamine receptors type 3 and 5 on the surface of CD34+ enriched cells; assay: Flow cytometry of dopamine receptor expression on CD34+ cells from BM of G-CSF treated or untreated donors; format: in vivo, human; conditions: CD34+ cells from BM of G-CSF treated healthy donors vs BM of untreated healthy donors
Source text: (i) Human cells and reagents. Human cord blood (CB), adult G-CSF mobilized peripheral blood (MPBL) and BM from normal or G-CSF treated donors mononuclear cells were obtained after informed consent in accordance with procedures approved by the human ethics committee of the Weizmann Institute of Science. The cell surface protein CD34 is frequently used as a marker for positive selection of human hematopoietic stem/progenitor cells in research and in transplantation. CD34^+ cell enrichment was performed using magnetic bead separation as previously described (Spiegel A et al Blood 2004; 2900-7). Cells were cultured in RPMI 1640 medium supplemented with 10% heat-inactivated FCS, antibiotics and glutamine.
Human CB cells were obtained from full-term deliveries after informed consent. Blood samples were diluted 1:1 in PBS. […]
(vi) Flow cytometry analysis. […] Human leukocytes were gated according to their expression of the pan-leukocyte marker CD45, and amongst this population the percentage of CD34+/CD38−/low primitive cells was determined. […] After staining, cells were washed in FACS buffer and analyzed by fluorescence-activated cell sorting (FACSCalibur and CellQuest software, Becton Dickinson).
Expression of dopamine receptors type 3 and 5 was evaluated on the surface of CD34^+ enriched cells that were obtained from different sources. […]

[8] = test system: dopamine receptor 3 and 5 on human CD34+/CD38-/low cells; assay: Dopamine receptor expression on human cells from BM of G-CSF treated chimeric NOD/SCID mice; format: in vivo, human cells in NOD/SCID mice; conditions: 5 daily s.c. injections of G-CSF
Experimental: Mobilization in NOD/SCID mice engrafted with human cells was performed as follows: mice received a daily subcutaneous injection of G-CSF (Filgrastim, […] in […] 0.9% NaCl, 5% fetal calf serum (FCS), pH 4.55) for 5 consecutive days and were sacrificed 4 hrs after the last injection. Peripheral blood from mice asphyxied with dry ice was collected by cardiac aspiration in heparinized tubes. Number of WBC in the peripheral blood was determined.
as §1, with “Engraftment of human cells was examined by staining with mouse anti-human CD45-Fitc, CD38-PE and CD34-APC (Becton Dickinson).” left out, “In several experiments dopamine receptor expression on CD34+/CD38−/low was tested, cells were triple stained with mouse anti-human CD38-PE, CD34-APC and rabbit anti human dopamine receptor 3 or 5 (Calbiochem, Nottingham, UK) followed by secondary antibodies goat anti rabbit alexa 488 (Molecular Probes, Eugene, Oreg.).” left out

[9] = test system: beta-2 adrenergic receptor on CD34+ cells; assay: Flow cytometry of beta-2 adrenergic receptor on CD34+ cells; design: species or system human; conditions: in vivo G-CSF stimulated (mobilized) peripheral blood CD34+ cells
Source text: We carried out experiments in order to test whether CD34+ cells are regulated by additional catecholamines neurotransmitters.

How did the “spontaneous migration of murine bone marrow mononuclear cells” value [1] turn out when `Cl.Oc1cc2c(cc1O)C(c1ccccc1)CNCC2` (single isomer, unassigned; (+)) [SKF, (+)-1-phenyl-2,3,4,5-tetrahydro(1H)-3-benzazepine-7,8-diol hydrochloride] was run?
Its value is “higher spontaneous migration”.

What about the “engraftment in the murine BM compared to control cells” value (human CD34+ cells [2]) of the same molecule?
Its value is 2 fold.

What about the “colony (CFU-C) formation in the presence of GM-CSF” value (cord blood CD34+ cells [3]; CB CD34+ cells, Epo, SCF) of the same molecule?
Its value is “augmented”.

And the “colony formation, culture not supplemented with myeloid cytokines” value (cord blood CD34+ cells [3]; CB CD34+ cells)?
Its value is “No increase”.

And the “percent of cells that exhibited polarized morphology compared to control” value (cord blood CD34+ cells [4])?
Its value is “more than doubled”.

Which “spontaneous migration of murine bone marrow mononuclear cells” value [1] does the source give for `CCCN(CCC)C1CCc2ccc(O)cc2C1` (stereo not shown) [7-OH-DPAT, 7-hydroxy-2-dipropylaminotetralin] here?
Its value is “higher spontaneous migration”.

What about the “engraftment in the murine BM compared to control cells” value (human CD34+ cells [2]) of the same molecule?
The value was 2 fold.

And the “colony formation in the presence of G-CSF” value (cord blood CD34+ cells [3]; CB CD34+ cells, Epo, SCF, IL-3 plus G-CSF 100 ng/ml, 7-OH-DPAT 100 nM)?
The value was “the largest increase”.

What about the “colony (CFU-C) formation in the presence of GM-CSF” value (cord blood CD34+ cells [3]; CB CD34+ cells, Epo, SCF) of the same molecule?
The value was “increased colony formation”.

And the “colony formation, culture not supplemented with myeloid cytokines” value (cord blood CD34+ cells [3]; CB CD34+ cells)?
Its value is “No increase”.

And the “increase in BM cellularity” value (BM cells; 7-OH-DPAT 1.5 mg/kg)?
Its value is 50%.

What about the “percent of cells that exhibited polarized morphology compared to control” value (cord blood CD34+ cells [4]) of the same molecule?
The value was “more than doubled”.

For `CN1CCN(C2=Nc3cc(Cl)ccc3Nc3ccccc32)CC1` [clozapine], which decrease in engraftment (human CD34+ cells [2]; MPB CD34+ cells pretreated with antagonist prior to injection, 5 weeks) is on record?
Its decrease in engraftment is 50%.

How did the “migration of cord blood CD34+ enriched cells towards dopamine in the lower chamber” value (human CD34+ cells [5]; cells pre-treated with GM-CSF, dopamine 10 nM (tested 1 nM-1 uM)) turn out when `NCCc1ccc(O)c(O)c1` [dopamine] was run?
Its value is “significantly increased”.

And the “migration of cord blood CD34+ cells towards dopamine, cells not pre-treated with GM-CSF” value (human CD34+ cells [5]; no GM-CSF pre-treatment, data not shown)?
The value was “not detected”.

What does the source list for `CNC[C@H](O)c1ccc(O)c(O)c1` [epinephrine]?
engraftment of human CD34+ cells in NOD/SCID mice (human CD34+ cells [2]): enhance engraftment; clonogenic capacity of human cord blood CD34+ cells (cord blood CD34+ cells [3]): increase the clonogenic capacity

For `OCCN1CCN(CCC=C2c3ccccc3Sc3ccc(C(F)(F)F)cc32)CC1` [flupenthixol, 2-[4-[3-[2-(trifluoromethyl)thioxanthen-9-ylidene]propyl]piperazin-1-yl]ethanol], which “decrease in BM cellularity” value (BM cells; flupenthixol 3 mg/kg) is on record?
The value was 25%.

How did the “engraftment of human CD34+ cells in NOD/SCID mice” value (human CD34+ cells [2]) turn out when `NC[C@H](O)c1ccc(O)c(O)c1` [norepinephrine] was run?
The value was “enhance engraftment”.

And the “clonogenic capacity of human cord blood CD34+ cells” value (cord blood CD34+ cells [3])?
The value was “increase the clonogenic capacity”.

What about the “migration of CD34+ cells towards norepinephrine in the lower well” value (human CD34+ cells [5]; CB (GM-CSF pretreated) or MPB CD34+ cells, 1 or 10 nM norepinephrine) of the same molecule?
Its value is “increased migration”.

Which “levels of dopamine receptors 3 and 5 in CD34+/CD38-/low cells” value [6] does the source give for “GM-CSF: myeloid cytokine, granulocyte/macrophage-colony stimulating factor” here?
Its value is “up regulated”.

B1: G-CSF: myeloid cytokine, granulocyte colony-stimulating factor (Filgrastim, Roche) (protein, chains of the INN, looked up)
chain: MTPLGPASSLPQSFLLKCLEQVRKIQGDGAALQEKLCATYKLCHPEELVLLGHSLGIPWAPLSSCPSQALQLAGCLSQLHSGLFLYQGLLQALEGISPELGPTLDTLQLDVADFATTIWQQMEELGMAPALQPTQGAMPAFASAFQRRAGGVLVASHLQSFLEVSYRVLRHLAQP
What does the source list for B1?
expression of dopamine receptor on the surface of enriched CD34+ cells, higher than untreated donors [7]: 2-4 folds; level of dopamine receptor expression in the CD34+/CD38-/low cell population [8]: increase; levels of β2-adrenergic receptor on CD34+ cells [9]: higher levels
